From patent US20240391931A1 (Bristol-Myers Squibb Company, priority 2021, published 2024) come the findings set out here.

In general, GI50 refers to the concentration giving 50% growth inhibition.

The test system of assay [1] is Ba/F3 parental cells. The assay can be described thus: Cellular proliferation in Ba/F3 parental (IL3-dependent) cells. The format is cell-based, murine. To be noted: Mus musculus, BaF3. Here is the method: (§1) Engineered lines expressing HER2YVMA and HER2 WT were prepared in HEK293 (human embryonic kidney cells), Ba/F3 (Interleukin 3 (IL3)-dependent murine pro B cell line), and BEAS2B (primary immortalized human bronchial epithelial cell line). Ba/F3, BEAS2B, and HEK293 cells were obtained from the American Type Culture Collection (ATCC, Manassas, VA). Parental Ba/F3 cells were grown in suspension in complete RPMI 1640 supplemented with 10% FBS and 1% P/S and 10 ng/ml interleukin 3 (IL3, Sigma-Aldrich). Hek293 and BEAS2B cells were grown as monolayers in DMEM supplemented with 10% FBS and 1% P/S. All cells were maintained and propagated in a humidified 5% CO2 incubator at 37° C.
Cell proliferation in non-adherent cells was investigated in Ba/F3 parental (IL3-dependent) and in the two IL3 independent cell clones tranduced to express mutant HER2 protein containing the YVMA insertion (Ba/F3 HER2YVMA). Cells were plated in DMEM supplemented with 10% FBS, 1% P/S, and 10 ng/ml IL3 (for parental Ba/F3 only) in 96-well white clear-bottom tissue culture plates (Costar, Sigma-Aldrich) at a starting cell density of 7500 cells. An 8-point standard curve with varying cell densities (starting at 100,000 cells and serially diluting down 2-fold) was prepared for each cell line and read after plating. Compound solutions were prepared in serum free media, and cells were treated as described above for adherent cells. Cell viability was determined by CellTiter Glo (Promega, Madison, WI) after 72 h. The results were converted to cell numbers using a standard curve; growth inhibition (GI50 values) were determined by Graph Pad Prism.
The results of these experiments show the ability of compounds to inhibit cell growth in HER2 dependent cell lines and a control cell line (Ba/F3 parental) are depicted in Table 4 in the columns titled “G150 (nM)”. Ba/F3 parental results fall under the heading “Ba/F3 parental-G150”, and Ba/F3 HER2YVMA fall under the heading “Ba/F3 YVMA-G150”.

Assay [2] deals with HER2YVMA (Homo sapiens, UniProt P04626, INS775YVMA). The assay can be described thus: HER2 signaling (pHER2) in Ba/F3-HER2YVMA cells. More on the design: expressed in transfected cells; host or cells: HEK293 (pool), Ba/F3 (clones), BEAS2B (clones); lentiviral vector pCDH-CMV-MCS-EF1-Neo. The format is cell-based. The note with it: read-out: Ba/F3 YVMA pHER2 EC50. On the procedure: Cell culture, plasmid cloning, and lentiviral transduction were carried out according to standard procedures. The Human HER2 cDNA construct in pCMV6-Entry for the HER2 wildtype (WT) expression was obtained from Origene. The HER2 cDNA including the 12-nucleotide insertion corresponding to YVMA insertion (HER2YVMA) was codon optimized, synthesized and cloned by GenScript (Piscataway, NJ) in pcDNA3.1. The lentiviral constructs expressing HER2YVMA and HER2 WT were sub-cloned using PCR at System Biosciences (SBI, Mountainview, CA) into lentiviral vectors pCDH-CMV-MCS-EF1-Neo and lentiviral particles were generated.
Chain of HER2YVMA (P04626 with tags, fused parts or gaps INS775YVMA): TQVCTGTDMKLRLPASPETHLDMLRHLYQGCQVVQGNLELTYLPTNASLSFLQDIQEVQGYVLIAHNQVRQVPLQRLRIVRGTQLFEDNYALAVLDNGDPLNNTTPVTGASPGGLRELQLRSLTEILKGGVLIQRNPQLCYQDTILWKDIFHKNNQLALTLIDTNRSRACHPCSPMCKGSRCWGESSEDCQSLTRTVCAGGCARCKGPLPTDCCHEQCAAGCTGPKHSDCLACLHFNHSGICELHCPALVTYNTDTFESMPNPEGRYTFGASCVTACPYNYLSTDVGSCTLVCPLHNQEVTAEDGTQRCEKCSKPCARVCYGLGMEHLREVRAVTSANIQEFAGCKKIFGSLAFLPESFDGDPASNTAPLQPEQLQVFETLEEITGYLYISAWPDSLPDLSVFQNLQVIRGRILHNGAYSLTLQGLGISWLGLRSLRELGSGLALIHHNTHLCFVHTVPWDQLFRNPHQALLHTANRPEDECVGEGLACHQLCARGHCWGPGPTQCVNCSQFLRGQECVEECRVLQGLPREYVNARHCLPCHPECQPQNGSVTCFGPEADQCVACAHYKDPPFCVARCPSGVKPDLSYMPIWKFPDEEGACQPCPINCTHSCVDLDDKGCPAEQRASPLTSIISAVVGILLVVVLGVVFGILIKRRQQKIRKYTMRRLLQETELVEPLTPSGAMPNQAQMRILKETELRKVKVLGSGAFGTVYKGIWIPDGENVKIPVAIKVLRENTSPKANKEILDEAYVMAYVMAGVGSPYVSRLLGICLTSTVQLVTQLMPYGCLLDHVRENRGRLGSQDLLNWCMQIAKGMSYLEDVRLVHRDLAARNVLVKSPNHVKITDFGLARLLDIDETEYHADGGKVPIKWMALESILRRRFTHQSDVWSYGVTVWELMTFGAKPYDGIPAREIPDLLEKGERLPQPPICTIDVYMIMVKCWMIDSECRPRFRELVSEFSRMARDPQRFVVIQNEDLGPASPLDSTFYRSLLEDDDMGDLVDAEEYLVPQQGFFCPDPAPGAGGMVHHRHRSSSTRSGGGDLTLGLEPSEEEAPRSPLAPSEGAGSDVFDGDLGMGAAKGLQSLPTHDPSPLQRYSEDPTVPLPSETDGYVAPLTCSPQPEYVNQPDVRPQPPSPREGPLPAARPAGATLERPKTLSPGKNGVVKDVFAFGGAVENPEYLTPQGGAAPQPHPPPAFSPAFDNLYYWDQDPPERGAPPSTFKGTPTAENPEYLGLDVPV
as §1
To generate Ba/F3, BEAS2B, and Hek-293 cells engineered with lentivirus to express HER2 WT or HER2YVMA, the cells were transduced with lentiviruses at multiplicity of infection (MOI) of 1 or 10; transduced cells were selected and maintained with G418 ([…]) (Geneticin, Life Technologies, Carlsbad, CA). Ba/F3 engineered cells were subjected to gradual withdrawal of interleukin 3 (IL-3, Sigma-Aldrich). After selection, IL3 independent Ba/F3 HER2YVMA, and BEAS2B HER2YVMA cells were cloned by limiting dilution. Hek293 HER2YVMA cells were used as pool. HER2 and phospho HER2 levels were confirmed by flow cytometery and immunoassay (MSD, Meso-Scale Discovery, Rockville, Maryland).
Compound treatment of Ba/F3-HER2YVMA suspension cells was done as described with minor modifications. Cells were plated at 300000 cell/well in 96-well round bottom plates in RPMI supplemented with 2% FBS and immediately dosed with compounds serially diluted in media without serum for a final concentration of 1% FBS, 0.1% DMSO. Cells were incubate with compounds for 1.5 hr, and plates were spun at 1500 rpm for 5 mins to remove media without disturbing pellet. Cells were lysed as described above.
HER2 signaling was evaluated using phospho (Tyr1248)/total ErbB2 whole cell lysate MSD plates (Meso-Scale Discovery, Gaithersburg, MD). The phospho HER2 signal was normalized to total HER2 for each sample; results are reported as % DMSO control. The normalized data was fitted using a sigmoidal curve analysis program (Graph Pad Prism version 6) with variable Hill slope to determine EC50 values.
The HER2 signaling results are provided in Table 4, under columns titled “BT474-pHER2 EC50”, “N87-pHER2 EC50”, and “NCI-H1781-pHER2 EC50”. Hek293-HER2YVMA ins fall under the heading “HEKYVMA-pHER2 EC50”, Ba/F3 HER2YVMA fall under the heading “Ba/F3 YVMA-pHER2 EC50” and BEAS2B-HER2YVMA fall under the heading “BEAS2B YVMA-pHER2 EC50”.

For `COc1ccc(Oc2ccc(Nc3ncnc4sc5c(c34)CCN(C(=O)/C=C/CN(C)C)C5)cc2C)cn1` [Compound 95, (E)-4-(Dimethylamino)-1-(4-((4-((6-methoxypyridin-3-yl)oxy)-3-methylphenyl)amino)-5,6-dihydropyrido[4′,3′:4,5]thieno[2,3-d]pyrimidin-7(8H)-yl)but-2-en-1-one], the concentration for 50% growth inhibition (GI50) in assay [1] was 1 to 10 µM. In the case of `Cc1ccc(Oc2ccc(Nc3ncnc4sc5c(c34)CN(C(=O)/C=C/CN(C)C)C5)cc2C)cn1` [Compound 99, (E)-4-(dimethylamino)-1-(4-((3-methyl-4-((6-methylpyridin-3-yl)oxy)phenyl)amino)-5,7-dihydro-6H-pyrrolo[3′,4′:4,5]thieno[2,3-d]pyrimidin-6-yl)but-2-en-1-one], the GI50 in assay [1] lay within 1 to 10 µM. Consider `Cc1ccc(Oc2ccc(Nc3ncnc4sc5c(c34)CCN(C(=O)/C=C/CN3CC4C(CO)C4C3)C5)cc2C)cn1` (centres unmarked) [Compound 34], for which the GI50 in assay [1] fell in the range of 1 to 10 µM. Moreover, the EC50 in assay [2] was under 100 nM.

On to `Cc1ccc(Oc2ccc(Nc3ncnc4sc5c(c34)CCN(C(=O)/C=C/CN(C)C(C)(C)C)C5)cc2C)cn1` [Compound 33], for which the GI50 in assay [1] fell in the range of 1 to 10 µM. In addition, the EC50 in assay [2] was under 100 nM.

For `CN(C)C/C=C/C(=O)N1CCc2c(sc3ncnc(Nc4ccc(Oc5ccc6ncnn6c5)c(Cl)c4)c23)C1` [Compound 5, (E)-1-(4-((4-([1,2,4]triazolo[1,5-a]pyridin-6-yloxy)-3-chlorophenyl)amino)-5,8-dihydropyrido[4′,3′:4,5]thieno[2,3-d]pyrimidin-7(6H)-yl)-4-(dimethylamino)but-2-en-1-one], the EC50 in assay [2] is under 100 nM. For the compound `Cc1ccc(Oc2ccc(Nc3ncnc4sc5c(c34)C(C)CN(C(=O)C=CCN(C)C)C5)cc2C)cn1` (single isomer, unassigned) [Compound 106], in assay [1], the 50% growth inhibitory concentration (GI50) is 1 to 10 µM.
